Read-outs that look alike come from different tables or passages of the source.
Key:
eosinophils [1] = conditions: OVA mice, 100 mg/kg, day 42, p=0.0041
eosinophils [2] = test system: eosinophils
Method: In a 39-week repeat-dose toxicology study, minipigs were dosed at 0, 7.5, 25, and 75 mg/kg dexpramipexole by daily oral gavage through Study Day 45 and at 0, 7.5, 25, and 50 mg/kg dexpramipexole from Study Day 46 to study completion.

basophils = conditions: 300 mg daily, remained reduced through month 12
Method: (§1) The phase 3 clinical trial was a double-blind study of dexpramipexole in ALS patients randomized 1:1 to placebo or dexpramipexole 300 mg daily treatment. Hematology parameters were collected as part of routine safety monitoring. Eosinophil and basophil counts were retrospectively analyzed by visit.
Changes in basophil counts were also analyzed in the Phase 3 trial.

[3] = test system: infiltrating white blood cells; conditions: OVA mice, 30 and 100 mg/kg, day 42, compared to OVA
[4] = humans, exposures up to 18 months
eosinophils [5] = test system: eosinophils; remark: listed apart in the source
Method: as §1
Eosinophil levels were summarized over available time points and analyzed by ANOVA testing the effect of treatment vs. placebo on mean changes in serum eosinophil counts from baseline. Subjects with baseline eosinophils from 0 to 0.02×10^9/L (constituting less than 2% of all subjects analyzed) were censored from the primary analysis because of the inherent limitation to observe a decline from baseline.
Statistical analysis of the change from baseline was performed at month 6 to remove the effect of study dropouts in later months.

eosinophils [6] = conditions: for mean eosinophils at week 16 recovered to, of baseline levels: after one-month washout following week 12
Method: The Phase 2 trial was a two-part, double-blind study that evaluated the safety, tolerability, and clinical effects of dexpramipexole in ALS patients.
In Part 1, subjects were randomized to placebo (n=27), 50 mg/day (n=23), 150 mg/day (n=26), or 300 mg/day dexpramipexole (n=26) for 12 weeks.

In the case of `CCCN[C@@H]1CCc2nc(N)sc2C1` [dexpramipexole, (6R)-2-amino-4,5,6,7-tetrahydro-6-(propylamino)benzothiazole], the “circulating levels of eosinophils compared to vehicle-treated controls” value (eosinophils [1]) is reported as “significantly reduced”, the “safety assessment of eosinophil differences” value (eosinophils [2]; minipig, in vivo) is reported as “not considered adverse” and the effect on eosinophils (eosinophils [2]; minipigs, 0, 7.5, 25 and 75 (50 from Study Day 46) mg/kg daily oral gavage, 39 weeks) is reported as “dose- and time-dependent reduction in eosinophils”. For the same molecule, the “time at which basophil decline reached plateau” value (basophils) was ~4 month, the “infiltrating white blood cells in bronchoalveolar lavage fluid” value [3] was “dose-dependent decrease in infiltrating white blood cells” and the tolerability [4] was “well-tolerated”. For the same molecule, the “effect on peripheral blood eosinophil count” value (eosinophils [5]; 300 mg daily, after 8-12 weeks of treatment, persisted for the duration of the trial) was “profound decrease”, the “effect on eosinophil counts in a subject with elevated baseline eosinophil counts” value (eosinophils [5]; Phase 3 subject with highest baseline eosinophil count, persisted through month 12) was “decrease in eosinophil counts” and the “decrease in eosinophil count in subjects with higher eosinophil counts” value (eosinophils [5]; subjects (n=42) with baseline >0.25×10^9/L, after 6 months of treatment) was 75%. For the same molecule, the “mean eosinophils at week 16 recovered to, of baseline levels” value (eosinophils [6]; 150 mg/day group) was 47%, the “mean eosinophils at week 16 recovered to, of baseline levels” value (eosinophils [6]; 300 mg/day group) was 73% and the “effect on eosinophil counts” value (eosinophils [6]; ALS subjects, Phase 2) was “dose- and time-dependent decrease in eosinophil counts”. The “effect on eosinophil counts in a subject with hypereosinophilia at baseline” value (eosinophils [6]; one Phase 2 subject, Part 2 baseline, persisted through month 12) was “decrease in eosinophil counts”.

Reference: patent US10828284B2, “Compositions and methods for treating conditions related to elevated levels of eosinophils and/or basophils” (Knopp Biosciences LLC, priority 2013, dated 2020)
